Numbering of substitutions follows the chain as printed.
Key:
[1] = system: experimental autoimmune encephalomyelitis (EAE); details: mouse model for multiple sclerosis; cited from earlier work
[2] = target: T1, FLT3 kinase (Homo sapiens, UniProt P36888); assay: FLT3 kinase assay (AlphaScreen); format: biochemical; details: read-out: Ranking of IC50 values, FLT3
T1 construct: purchased SignalChem
T1 sequence (P36888 27-993): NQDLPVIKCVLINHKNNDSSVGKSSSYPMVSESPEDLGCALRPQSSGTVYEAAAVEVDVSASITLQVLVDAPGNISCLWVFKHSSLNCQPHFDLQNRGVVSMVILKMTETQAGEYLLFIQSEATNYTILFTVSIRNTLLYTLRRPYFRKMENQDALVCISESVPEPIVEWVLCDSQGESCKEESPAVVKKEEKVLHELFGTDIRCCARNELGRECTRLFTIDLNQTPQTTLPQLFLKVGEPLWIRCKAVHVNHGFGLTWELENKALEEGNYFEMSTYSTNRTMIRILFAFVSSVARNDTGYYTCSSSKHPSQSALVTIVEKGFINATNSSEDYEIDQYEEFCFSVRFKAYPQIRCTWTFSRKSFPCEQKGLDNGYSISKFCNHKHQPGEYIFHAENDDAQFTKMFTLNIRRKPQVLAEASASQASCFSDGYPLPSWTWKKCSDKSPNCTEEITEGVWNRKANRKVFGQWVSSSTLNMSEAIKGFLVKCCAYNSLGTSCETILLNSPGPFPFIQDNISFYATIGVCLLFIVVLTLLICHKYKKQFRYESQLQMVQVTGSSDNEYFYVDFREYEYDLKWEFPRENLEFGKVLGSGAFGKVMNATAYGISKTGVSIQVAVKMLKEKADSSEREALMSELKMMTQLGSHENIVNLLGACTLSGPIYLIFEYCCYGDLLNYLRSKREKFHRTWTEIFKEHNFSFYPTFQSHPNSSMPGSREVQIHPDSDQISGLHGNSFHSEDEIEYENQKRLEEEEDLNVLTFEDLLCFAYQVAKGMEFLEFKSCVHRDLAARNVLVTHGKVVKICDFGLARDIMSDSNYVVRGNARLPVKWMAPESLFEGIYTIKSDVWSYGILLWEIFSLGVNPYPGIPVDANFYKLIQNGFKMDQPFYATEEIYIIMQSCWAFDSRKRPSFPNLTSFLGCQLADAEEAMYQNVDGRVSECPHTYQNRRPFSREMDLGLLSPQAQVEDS
Procedure: (§1) Inhibition of FLT3 kinase activity by a test compound disclosed herein was estimated by AlphaScreen (PerkinElmer, Akron, Ohio, USA). Standard assay conditions were 1.5 ng of recombinant FLT3 kinase (SignalChem, Richmond, BC, Canada) with 6 ng Biotin-conjugated Poly-(Glu 4: Tyr 1) (Cisbio, Bedford, MA, USA) in the assay buffer (10 μM ATP, 10 mM MOPs, pH7.0, 0.21 mM EDTA, 0.5% glycerol, 1 mg/mL BSA, 0.01% 2-mercaptoethanol, 0.001% Brij35, 10 mM MgCl2) in a final volume of 25 μL. Reactions were incubated at 30° C. for 30 min and stopped by adding 5 μL of 50 mM EDTA. Analysis of resulting product using an AlphaScreen kit and counted with Enspire Alpha (PerkinElmer, Waltham, MA, USA). […] The IC50 values of inhibitors were determined after carrying out assays with each compound at serially diluted concentrations in duplication. The results were analyzed using linear regression software (GraphPad Prism 5; GraphPad Software Inc.)

[3] = target: T2, FLT3-D835Y mutant kinase (Homo sapiens, UniProt P36888, D835Y); assay: FLT3-D835Y mutant kinase assay (AlphaScreen); format: biochemical; details: read-out: Ranking of IC50 values, FLT3-D835Y
T2 construct: purchased SignalChem
T2 sequence (P36888 27-993 D835Y): T1 sequence (P36888 27-993) with D809Y
Procedure: as §1, with “FLT3-D835Y mutant” for “FLT3”, “(PerkinElmer).” for “(PerkinElmer, Akron, Ohio, USA).”, “1” for “1.5”, “(SignalChem)” for “(SignalChem, Richmond, BC, Canada)”, “(Cisbio)” for “(Cisbio, Bedford, MA, USA)”, “(PerkinElmer).” for “(PerkinElmer, Waltham, MA, USA).”

[4] = target: T3, PDGFRα kinase (Homo sapiens, UniProt P16234); assay: PDGFRα kinase assay (AlphaScreen); format: biochemical; details: read-out: Ranking of IC50 values, PDGFRα
T3 construct: purchased SignalChem
T3 sequence (P16234 24-1089): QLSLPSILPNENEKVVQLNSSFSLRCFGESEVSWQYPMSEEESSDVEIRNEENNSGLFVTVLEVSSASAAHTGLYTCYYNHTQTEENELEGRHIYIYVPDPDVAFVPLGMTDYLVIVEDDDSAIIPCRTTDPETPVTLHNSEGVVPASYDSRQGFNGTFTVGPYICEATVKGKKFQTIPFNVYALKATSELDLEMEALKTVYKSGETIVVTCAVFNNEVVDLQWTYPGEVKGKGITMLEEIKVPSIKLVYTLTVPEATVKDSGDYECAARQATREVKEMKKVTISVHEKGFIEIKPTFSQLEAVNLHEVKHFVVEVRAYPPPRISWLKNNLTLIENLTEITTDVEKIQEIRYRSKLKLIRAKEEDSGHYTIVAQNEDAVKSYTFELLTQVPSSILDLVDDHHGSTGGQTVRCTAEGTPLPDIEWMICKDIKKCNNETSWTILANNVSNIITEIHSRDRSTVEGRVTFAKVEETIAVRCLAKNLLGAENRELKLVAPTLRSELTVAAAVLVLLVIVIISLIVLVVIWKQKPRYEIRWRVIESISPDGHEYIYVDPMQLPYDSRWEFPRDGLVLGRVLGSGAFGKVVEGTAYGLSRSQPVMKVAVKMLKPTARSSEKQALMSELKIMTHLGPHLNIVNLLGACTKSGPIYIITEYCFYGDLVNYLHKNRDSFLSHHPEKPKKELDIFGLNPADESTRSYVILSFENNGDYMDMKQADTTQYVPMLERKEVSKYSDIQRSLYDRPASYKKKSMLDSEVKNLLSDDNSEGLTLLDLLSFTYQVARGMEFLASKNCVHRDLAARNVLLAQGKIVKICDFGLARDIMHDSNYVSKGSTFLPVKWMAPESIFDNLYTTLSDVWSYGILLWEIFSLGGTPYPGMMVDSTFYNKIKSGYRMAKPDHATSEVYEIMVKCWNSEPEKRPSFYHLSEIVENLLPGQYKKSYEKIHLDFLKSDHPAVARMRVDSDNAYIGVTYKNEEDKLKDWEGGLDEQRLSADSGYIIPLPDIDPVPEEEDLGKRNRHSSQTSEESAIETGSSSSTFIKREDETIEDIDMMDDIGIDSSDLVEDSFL
Procedure: Inhibition of PDGFRα kinase activity by a test compound disclosed herein was estimated by AlphaScreen (PerkinElmer). Standard assay conditions were 1.5 ng of recombinant PDGFRα kinase (SignalChem) with 6 ng Biotin-conjugated Poly-(Glu 4: Tyr 1) (Cisbio) in the assay buffer (10 μM ATP, 10 mM MOPs, pH 7.0, 0.21 mM EDTA, 0.5% glycerol, 1 mg/mL BSA, 0.01% 2-mercaptoethanol, 0.001% Brij35, 10 mM MgCl2) in a final volume of 25 μL. Reactions were incubated at 30° C. for 30 min and stopped by adding […] of 50 mM EDTA. Analysis of resulting product using an AlphaScreen kit and counted with Enspire Alpha (PerkinElmer). […] The IC50 values of inhibitors were determined after carrying out assays with each compound at serially diluted concentrations in duplication. The results were analyzed using linear regression software (GraphPad Prism 5; GraphPad Software Inc.)

[5] = target: T4, MET kinase (Homo sapiens, UniProt P08581); assay: MET kinase assay (AlphaScreen, counter screen); format: biochemical; details: read-out: Ranking of IC50 values, MET
T4 construct: purchased SignalChem
T4 sequence (P08581 25-1390): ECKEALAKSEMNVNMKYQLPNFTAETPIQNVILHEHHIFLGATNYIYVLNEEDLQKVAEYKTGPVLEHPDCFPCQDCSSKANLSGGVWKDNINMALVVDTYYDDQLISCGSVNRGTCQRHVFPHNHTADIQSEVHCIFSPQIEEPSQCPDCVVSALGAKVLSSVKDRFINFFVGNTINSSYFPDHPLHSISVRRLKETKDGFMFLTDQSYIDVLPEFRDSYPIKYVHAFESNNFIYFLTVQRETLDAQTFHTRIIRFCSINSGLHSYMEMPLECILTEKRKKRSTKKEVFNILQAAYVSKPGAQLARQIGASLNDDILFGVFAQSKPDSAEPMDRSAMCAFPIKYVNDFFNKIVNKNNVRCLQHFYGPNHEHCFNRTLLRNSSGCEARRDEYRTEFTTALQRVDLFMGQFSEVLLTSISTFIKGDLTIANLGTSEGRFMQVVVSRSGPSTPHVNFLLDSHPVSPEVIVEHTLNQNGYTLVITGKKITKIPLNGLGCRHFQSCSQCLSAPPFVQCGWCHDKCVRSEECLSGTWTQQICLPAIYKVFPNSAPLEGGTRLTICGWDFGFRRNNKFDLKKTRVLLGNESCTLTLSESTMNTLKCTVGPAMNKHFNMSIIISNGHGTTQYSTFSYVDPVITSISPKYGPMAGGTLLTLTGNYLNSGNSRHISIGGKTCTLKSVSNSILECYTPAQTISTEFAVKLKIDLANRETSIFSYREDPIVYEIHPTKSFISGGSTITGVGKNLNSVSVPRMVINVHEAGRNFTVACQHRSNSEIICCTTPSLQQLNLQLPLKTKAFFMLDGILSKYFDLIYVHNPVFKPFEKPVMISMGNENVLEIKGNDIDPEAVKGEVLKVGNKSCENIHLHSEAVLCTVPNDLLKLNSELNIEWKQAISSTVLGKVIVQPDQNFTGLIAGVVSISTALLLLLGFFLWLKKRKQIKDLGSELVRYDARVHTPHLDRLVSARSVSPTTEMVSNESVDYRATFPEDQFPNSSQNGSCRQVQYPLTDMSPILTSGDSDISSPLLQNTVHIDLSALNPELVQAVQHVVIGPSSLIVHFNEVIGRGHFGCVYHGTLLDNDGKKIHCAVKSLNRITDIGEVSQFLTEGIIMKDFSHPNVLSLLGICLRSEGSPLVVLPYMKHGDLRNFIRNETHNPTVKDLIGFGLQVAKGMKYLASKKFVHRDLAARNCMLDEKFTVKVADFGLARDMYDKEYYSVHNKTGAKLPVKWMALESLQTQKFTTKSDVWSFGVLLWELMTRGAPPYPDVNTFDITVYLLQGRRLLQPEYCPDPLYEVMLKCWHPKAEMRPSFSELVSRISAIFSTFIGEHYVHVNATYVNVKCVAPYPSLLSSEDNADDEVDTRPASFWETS
Procedure: Because MET kinase belonged to Class VIII RTK family have one transmembrane a chain linked with one extracellular β chain which is different form Class III RTK family with 5 Immunoglobin-like extracellular domains. Standard assay conditions were 1 ng of recombinant MET kinase (SignalChem) with 3 ng Biotin-conjugated Poly-(Glu 4: Tyr 1) (Cisbio) in the assay buffer ([…], 10 mM MOPs, pH 7.0, 0.21 mM EDTA, 0.5% glycerol, 1 mg/mL BSA, 0.01% 2-mercaptoethanol, 0.001% Brij35, 10 mM MgCl2) in a final volume of 25 μL. Reactions were incubated at 30° C. for 45 min and stopped by adding 5 μL of 50 mM EDTA. Analysis of resulting product using an AlphaScreen kit and counted with Enspire Alpha (PerkinElmer). […] The IC50 values of inhibitors were determined after carrying out assays with each compound at serially diluted concentrations in duplication. The results were analyzed using linear regression software (GraphPad Prism 5; GraphPad Software Inc.)

Row | IC50 [2] [µM] | IC50 [3] [µM] | IC50 [4] [µM] | IC50 [5] [µM] | Structure (SMILES) | reducing myelin loss in EAE [1]
1 | – | – | – | – | C[C@]12O[C@H](C[C@]1(O)CO)n1c3ccccc3c3c4c(c5c6ccccc6n2c5c31)CNC4=O [CEP-701] | effective in reducing myelin loss
2 | 0.001 to 0.01 | 0.001 to 0.01 | 0.001 to 0.01 | > 1 | Brc1n[nH]c2cc(-c3n[nH]c4c3Cc3sc(-c5ccc(CN6CCOCC6)cc5)cc3-4)ccc12 [Compound 68, 4-(4-(3-(3-bromo-1H-indazol-6-yl)-1,4-dihydro-thieno[2′,3′:4,5]cyclopenta [1,2-c]pyrazol-6-yl)benzyl)morpholine] | –

Reference: patent US12448394B2, “Heterocyclic pyrazole derivatives as type III receptor tyrosine kinase inhibitors” (DEVELOPMENT CENTER FOR BIOTECHNOLOGY, priority 2019, dated 2025)
